The values that follow come from patent US20070010507A1, “Compounds useful in the therapy of alzheimer's disease and formulations containing them” (priority 2003, published 2007).

The subject of one test is α-secretase-mediated APP metabolism (SH-SY5Y neuroblastoma cells). Briefly: α-secretase-induced APPs release in culture medium of neuroblastoma cell line SH-SY5Y. The class given is cell-based. To be noted: 10 μM; APPs secreted in culture medium of SH-SY5Y cells; control = 100. How it is done:
The salts according to the present invention are stable crystalline products having strong antidepressive and anti-Alzheimer actions. The effect of the compounds of the invention on α-secretase-induced APPs release was determined in the culture medium of a neuroblastoma cell line (SH-SY5Y) according to what reported by Galbete J. L. et al. in Biochem. 348,307-313, 2000.
Compound `CC(C)CCCC1(C)C(CCC(C)C)CC2(CCC(C)C)C(=O)C1(C(=O)C(C)C)C(=O)C(CCC(C)C)=C2O.COc1ccc2c3c1OC1CC(O)C=CC31CCN(C)C2` (stereo not drawn) [Galantamonium octahydrohyperforinate, Galantamine octahydrohyperforinate] gave an APPs % of 3652%.
The same measure, in the same setting: the figure for `CC(C)=CCC[C@]1(C)[C@@H](CC=C(C)C)C[C@@]2(CC=C(C)C)C(=O)[C@]1(C(=O)C(C)C)C(=O)C(CC=C(C)C)=C2O` [Hyperforin] is 296%; for `CC(C)CCC[C@]1(C)[C@@H](CCC(C)C)C[C@@]2(CCC(C)C)C(=O)[C@]1(C(=O)C(C)C)C(=O)C(CCC(C)C)=C2O` [Octahydrohyperforin] it is 1383%; for “Memantine octahydrohyperforinate [Mentamine octahydrohyperforinate]” it is 3221%.

The same test, now with this note: concentration not given; APPs secreted in culture medium of SH-SY5Y cells; control = 100.
Consider `COc1ccc2c3c1O[C@H]1C[C@@H](O)C=C[C@@]31CCN(C)C2` [Galantamine], for which the APPs % came out at 302%.
`CC(C)=CCC[C@]1(C)[C@@H](CC=C(C)C)C[C@@]2(CC=C(C)C)C(=O)[C@]1(C(=O)C(C)C)C(=O)C(CC=C(C)C)=C2O.COc1ccc2c3c1O[C@H]1C[C@@H](O)C=C[C@@]31CCN(C)C2` [Galantamonium hyperforinate]: the APPs % is 773%.
